Experimental data published in patent US12403144B2, “HECT E3 ligase inhibitors and uses thereof” (IFOM FONDAZIONE ISTITUTO FIRC DI ONCOLOGIA MOLECOLARE, priority 2019, dated 2025).
Where a name gives a salt, the structure may show the parent alone.

Target: T1, untagged HECT of NEDD4 wild-type (WT) (E3 ligase) (Homo sapiens, UniProt P46934)
T1 construct: untagged HECT of NEDD4 wild-type (WT) (E3 ligase); made in house
T1 sequence (P46934 519-900 isoform P46934-4 limits assumed): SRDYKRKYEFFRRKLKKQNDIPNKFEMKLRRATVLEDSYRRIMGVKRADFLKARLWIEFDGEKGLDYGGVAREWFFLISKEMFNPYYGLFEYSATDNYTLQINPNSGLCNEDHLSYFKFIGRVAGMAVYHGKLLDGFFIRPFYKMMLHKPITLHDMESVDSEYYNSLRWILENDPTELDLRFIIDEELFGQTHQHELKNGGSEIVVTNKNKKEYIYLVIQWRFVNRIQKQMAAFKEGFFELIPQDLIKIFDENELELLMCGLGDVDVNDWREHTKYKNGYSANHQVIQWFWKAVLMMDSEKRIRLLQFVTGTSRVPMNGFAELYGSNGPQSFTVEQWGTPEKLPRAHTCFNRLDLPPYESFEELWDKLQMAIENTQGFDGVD
Experiment: In vitro ubiquitination assay TR-FRET based (self-ubiquitination of NEDD4)
Assay type: biochemical
Conditions: at 11 μM; pre-incubated for 1 hour; AUC of 120 minutes kinetic; read-out: percentages of inhibition (NEDD4)
Description: FIG. 1: TR-FRET kinetic assay performed with compound 12. […] Reactions were initiated with the addition of ATP. As labeled ubiquitin molecules become incorporated into chains they come into close proximity, resulting in energy transfer and increased signal to background detection. The activity of the enzyme is continuously and real time detected and it is expressed as % of signal/background during the time.
In order to quantitatively measure the self-ubiquitination process of the E3 HECT ligase NEDD4 the inventors employed a TR-FRET based assay. TR-FRET technology exploits the long-lasting emission of lanthanide fluorescence to interpose a short time-delay between FRET donor excitation and emission. This phenomenon enables to isolate real fluorescent signals from short-lived background emissions, thus reducing possible interference from compounds.
In the present study, elongation of the ubiqutin chain by NEDD4 is measured by adding bacterially expressed E1, His-tagged UBE2D3 (E2) and untagged HECT of NEDD4 wild-type (WT) (E3 ligase) (named in FIG. 1 as WT) enzymes to a mixture of Eu-cryptate ubiquitin, Cy5-ubiquitin and wild-type ubiquitin, combined in a ratio optimized for TR-FRET based conjugation (100×TRF-Ubiquitin Mix, SBB-TR0051). […] Bacterially expressed E1, His-tagged UBE2D3 (E2), untagged HECT NEDD4 (E3 ligase) WT and NEDD4 C/A enzymes were produced and purified as reported in E. Maspero et al. Methods Mol Biol. 1449:153-60 (2016).
Enzymatic incorporation of the labeled TRF-Ubiquitin mix into chains leads to an increase in fluorescence emission at 665 nm (emission of the acceptor Cy5-Ubiquitin, Emacceptor) and decrease at emission wavelength 620 nm (emission of the donor Eu-cryptate Ubiquitin, Emdonor).
The assay was performed in a 384-well plate format (Optiplate, Perkin Elmer, #6007290) on an automated liquid-handler (Hamilton STAR, Hamilton Robotics, Switzerland).
All compounds were dissolved in 100% DMSO and serially diluted in 96-well plates (from 100 μM to 0.005 μM).
Briefly, all reagents were thawed and kept on ice. A master mix containing E1, E2, E3 and TRF-Ubiquitin Mix (SBB-TR0051) diluted in the assay buffer (Tris-HCl pH 7.6 25 mM, NaCl 100 mM, MgCl2 5 mM and Tween 0.01%) is prepared and 50 μl/well is dispensed in a 384 well plate. 3 μl of compounds dissolved in DMSO in the above-indicated concentration range were added and pre-incubated for 1 hour. Final E1, E2 and E3 concentrations in the assay buffer (Tris-HCl pH 7.6 25 mM, NaCl 100 mM, MgCl2 5 mM and Tween 0.01%) were 30, 350 and 50 nanomolars, respectively. The reaction was initiated with the addition of ATP (22 μl of 2 mM ATP, JenaBioscience, NU-1010) and was allowed to proceed for 120 minutes, measuring fluorescence emission at 665 nm and 620 nm in real-time on an EnSpire microplate reader (Perkin Elmer).
Kinetic raw data were analyzed by Area Under the Curve (AUC) method using Prism GraphPad software.
% signal/background corresponds to the following equation: (Experimental signal−Background signal)/Background signal×100%
Experimental signal corresponds to the signal obtained by the enzymatic reaction in presence of the vehicle (DMSO) and/or the different compound concentrations. Background signal corresponds to the signal obtained by the enzymatic reaction in absence of ATP.
The relative potency of the compounds was evaluated by dose-response curves following the enzymatic reaction of HECT NEDD4 WT in real time for 120 minutes.
Percentage of inhibition is then determined by the equation: % inhibition=100×[1−(X)/(MAX)],
where MAX correspond to AUC of the vehicle (DMSO) treated enzyme, and X corresponds to the AUC of the compound treated enzyme.

Row | Compound | inhibition at 11 µM
1 | CCOC(=O)/C=C/CNCCCN1c2cc(Cl)ccc2CCc2cnn(C)c21 [Compound 30, Ethyl (E)-4-{[3-(8-chloro-1-methyl-4,5-dihydropyrazolo-[3,4-b][1]-benzazepin-10(1H)-yl)propyl]amino}but-2-enoate maleate] | > 50%
2 | CCOC(=O)/C=C/CNCCCN1c2cc(Cl)ccc2CCc2cn(C)nc21 [Compound 31] | < 30%
3 | CCOC(=O)/C=C/CNCCCN1c2cc(Cl)ccc2CCc2cncnc21 [Compound 32, Ethyl (E)-4-{[3-(9-chloro-5,6-dihydro-11H-pyrimido[4,5-b][1]-benzazepin-11-yl)propyl]amino}but-2-enoate fumarate] | > 50%
4 | CCOC(=O)/C=C/CNCCC(=O)N1c2ccccc2CCc2ccc(Cl)cc21 [Compound 33, Ethyl (E)-4-{[3-(3-chloro-10,11-dihydro-5H-dibenzo[b,f]azepin-5-yl)-3-oxo-propyl]amino}but-2-enoate maleate] | < 30%
5 | CCOC(=O)/C=C/CNCC(O)CN1c2ccccc2CCc2ccc(Cl)cc21 (centres unmarked) [Compound 34, Ethyl (E)-4-{[2-hydroxy-3-(3-chloro-10,11-dihydro-5H-dibenzo[b,f]azepin-5-yl)]propylamino} but-2-enoate] | > 50%
6 | CCOC(=O)/C=C/CNCCCN1c2cc(Cl)ccc2COc2ccccc21 [Compound 35, Ethyl (E)-4-{3-[3-chlorodibenzo[b,e][1,4]oxazepin-5(11H)-yl]propylamino}but-2-enoate maleate] | > 50%
7 | CCOC(=O)/C=C/CNCCCCN1c2cc(Cl)ccc2COc2ccccc21 [Compound 36, Ethyl (E)-4-{4-[3-chlorodibenzo[b,e][1,4]oxazepin-5(11H)-yl]butylamino}but-2-enoate maleate] | > 50%
8 | CCOC(=O)/C=C/CNCCCCN1c2ccccc2COc2ccc(Cl)cc21 [Compound 37, Ethyl (E)-4-{4-[7-chlorodibenzo[b,e][1,4]oxazepin-5(11H)-yl]butylamino}but-2-enoate maleate] | > 50%
9 | CCOC(=O)/C=C/CNCCCC(=O)N1c2ccccc2CCc2ccc(Cl)cc21 [Compound 38, Ethyl (E)-4-{[4-(3-chloro-10,11-dihydro-5H-dibenzo[b,f]azepin-5-yl)-4-oxo-butyl]amino}but-2-enoate maleate] | > 50%
10 | CCOC(=O)/C=C/CNCCCCN1c2ccc(O)cc2CCc2ccc(Cl)cc21 [Compound 39, Ethyl (E)-4-[4-(7-Chloro-2-hydroxy-10,11-dihydro-dibenzo[b,f]azepin-5-yl)-butylamino]-but-2-enoate maleate] | > 50%
11 | CCOC(=O)/C=C/CNCCCCN1c2ccccc2CCc2cc(O)c(Cl)cc21 [Compound 40, Ethyl (E)-4-[4-(3-Chloro-2-hydroxy-10,11-dihydro-dibenzo[b,f]azepin-5-yl)-butylamino]-but-2-enoate maleate] | > 50%
12 | CCOC(=O)/C=C/CNCCCCN1c2cc(Cl)ccc2CCc2cnn(C)c21 [Compound 43, Ethyl (E)-4-{[4-(8-chloro-1-methyl-4,5-dihydropyrazolo-[3,4-b][1]-benzazepin-10(1H)-yl)butyl]amino}but-2-enoate maleate] | > 50%
13 | CN(C/C=C/C(=O)CCc1ccccc1)CCCCN1c2ccccc2CCc2ccc(Cl)cc21 [Compound 53, (E)-6-[4-(3-chloro-10,11-dihydro-5H-dibenzo[b,f]azepin-5-yl)butyl-methyl-amino]-1-phenyl-hex-4-en-3-one maleate] | > 50%

Other lines, results leading:

Row | inhibition at 11 µM | Compound
14 | > 50% | CCOC(=O)/C=C/CNCCCN1c2ccccc2C(=O)N(C)c2ccc(Cl)cc21 [Compound 28, Ethyl (E)-4-{[3-(7-chloro-10-methyl-11-oxo-10,11-dihydro-5H-dibenzo[b,e][1,4]diazepin-5-yl)propyl]amino}but-2-enoate maleate]
15 | > 50% | CCOC(=O)/C=C/CNCCCCN1c2cc(Cl)ccc2NC(=O)c2ccccc21 [Compound 41, Ethyl (E)-4-{[4-(7-chloro-11-oxo-10,11-dihydro-5H-dibenzo[b,e][1,4]diazepin-5-yl)butyl]amino}but-2-enoate maleate]
16 | > 50% | CCOC(=O)/C=C/CNCCCCN1c2ccccc2C(=O)N(CCc2ccccc2)c2ccc(Cl)cc21 [Compound 44, Ethyl (E)-4-{[4-(7-chloro-10-(2-phenylethyl)-11-oxo-10,11-dihydro-5H-dibenzo[b,e][1,4]diazepin-5-yl)butyl]amino}but-2-enoate maleate]
17 | > 50% | CCOC(=O)/C=C/CNCCCCN1c2cc(Cl)ccc2C(=O)N(CCO)c2ccccc21 [Compound 46, Ethyl (E)-4-({4-[3-chloro-10-(2-hydroxyethyl)-11-oxo-10,11-dihydro-5H-dibenzo[b,e][1,4]diazepin-5-yl]butyl}amino)but-2-enoate maleate]
18 | > 50% | CCOC(=O)/C=C/CNCCCN1c2cc(Cl)ccc2C(=O)N(CCO)c2ccccc21 [Compound 47, Ethyl (E)-4-({3-[3-chloro-10-(2-hydroxyethyl)-11-oxo-10,11-dihydro-5H-dibenzo[b,e][1,4]diazepin-5-yl]propyl}amino)but-2-enoate maleate]
19 | > 50% | CCOC(=O)/C=C/CNCCCCN1c2cc(Cl)ccc2C(=O)N(CCCO)c2ccccc21 [Compound 48, Ethyl (E)-4-({4-[3-chloro-10-(3-hydroxypropyl)-11-oxo-10,11-dihydro-5H-dibenzo[b,e][1,4]diazepin-5-yl]butyl}amino)but-2-enoate maleate]
20 | > 50% | CCOC(=O)/C=C/CNCCCN1c2cc(Cl)ccc2C(=O)N(CCCO)c2ccccc21 [Compound 49, Ethyl (E)-4-({3-[3-chloro-10-(3-hydroxypropyl)-11-oxo-10,11-dihydro-5H-dibenzo[b,e][1,4]diazepin-5-yl]propyl}amino)but-2-enoate maleate]
21 | > 50% | CCOC(=O)/C=C/CNCCCCN1c2ccccc2C(=O)N(CCO)c2ccc(Cl)cc21 [Compound 50, Ethyl (E)-4-({4-[7-chloro-10-(2-hydroxyethyl)-11-oxo-10,11-dihydro-5H-dibenzo[b,e][1,4]diazepin-5-yl]butyl}amino)but-2-enoate maleate]
22 | > 50% | CCOC(=O)/C=C/CNCCCCN1c2ccccc2C(=O)N(CCCO)c2ccc(Cl)cc21 [Compound 51, Ethyl (E)-4-({4-[7-chloro-10-(3-hydroxypropyl)-11-oxo-10,11-dihydro-5H-dibenzo[b,e][1,4]diazepin-5-yl]butyl}amino)but-2-enoate maleate]
23 | 30 to 50% | CCOC(=O)/C=C/CNCCCN1c2ccccc2C(=O)N(CCCO)c2ccc(Cl)cc21 [Compound 52, Ethyl (E)-4-({3-[7-chloro-10-(3-hydroxypropyl)-11-oxo-10,11-dihydro-5H-dibenzo[b,e][1,4]diazepin-5-yl]propyl}amino)but-2-enoate maleate]
